From US9907800B2, “Kinase inhibitors and method of treating cancer” (University Health Network, priority 2010, dated 2018)
Structures can show the parent of a compound that is named as a salt. Where two headings read alike, the source gives them in different places.

Key:
human PLK4 = human PLK4 (Homo sapiens (Human), UniProt O00444); assay: PLK4 inhibition assay (indirect ELISA); format: biochemical
Method: PLK4 activity was measured using an indirect ELISA detection system. […] The colourimetric reaction was allowed to continue for 5 minutes, followed by addition of stop solution (0.5 N sulphuric acid), and quantified by detection at 450 nm with either a monochromatic or filter based plate reader (Molecular Devices M5 or Beckman DTX880, respectively).
Compounds were pre-incubated in the presence of enzyme for 15 minutes prior to addition of ATP and the activity remaining quantified using the above described activity assay. […] The IC50 value was determined using a non-linear 4 point logistic curve fit (XLfit4, IDBS) with the formula; (A+(B/(1+((x/C)^D)))), where A=background value, B=range, C=inflection point, D=curve fit parameter.

Aurora B = Aurora B (Homo sapiens (Human), UniProt Q96GD4); assay: Aurora B inhibition assay (Z-Lyte); format: biochemical; conditions: read-out: Aurora B IC50 Ranges
Aurora B, sequence (Q96GD4 whole entry): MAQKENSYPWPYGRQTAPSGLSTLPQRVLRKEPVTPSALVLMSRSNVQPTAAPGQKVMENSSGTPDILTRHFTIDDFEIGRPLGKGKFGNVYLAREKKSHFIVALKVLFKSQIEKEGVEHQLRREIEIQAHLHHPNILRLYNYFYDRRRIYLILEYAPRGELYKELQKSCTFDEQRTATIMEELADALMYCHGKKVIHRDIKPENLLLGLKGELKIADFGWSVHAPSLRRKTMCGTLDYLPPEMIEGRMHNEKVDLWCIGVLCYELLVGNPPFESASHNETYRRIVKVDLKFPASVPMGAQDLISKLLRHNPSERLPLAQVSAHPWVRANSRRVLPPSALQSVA
Method: Aurora B inhibition was determined using the Z-Lyte assay kit from Invitrogen. […] The % inhibition values were determined according to the manufacturer's directions and IC50 values were obtained using a non-linear 4 point logistic curve fit (XLfit4, IDBS)

human PLK4, sequence (O00444 1-391): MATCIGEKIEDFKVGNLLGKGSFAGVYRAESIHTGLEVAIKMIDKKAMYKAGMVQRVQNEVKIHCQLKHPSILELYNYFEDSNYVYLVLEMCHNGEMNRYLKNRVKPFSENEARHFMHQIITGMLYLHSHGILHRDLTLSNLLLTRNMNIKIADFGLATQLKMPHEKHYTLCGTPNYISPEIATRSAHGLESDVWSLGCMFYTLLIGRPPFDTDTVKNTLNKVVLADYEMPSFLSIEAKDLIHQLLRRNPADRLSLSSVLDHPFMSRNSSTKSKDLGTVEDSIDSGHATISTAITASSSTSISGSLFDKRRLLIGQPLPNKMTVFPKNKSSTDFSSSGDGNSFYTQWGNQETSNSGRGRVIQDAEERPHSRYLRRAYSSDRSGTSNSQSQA

O=C1Nc2ccccc2[C@]12C[C@H]2c1ccc2[nH]ncc2c1 (relative stereo) [Example A1, (1R*,2S*)-2-(1H-indazol-5-yl)spiro[cyclopropane-1,3′-indolin]-2′-one]
IC50 (human PLK4; read-out: PLK4 IC50 Ranges): > 1000 nM

O=C1Nc2ccccc2[C@]12C[C@H]2c1ccc2c(I)n[nH]c2c1 (relative stereo) [Example A9, (1R*,2S*)-2-(3-iodo-1H-indazol-6-yl)spiro[cyclopropane-1,3′-indolin]-2′-one]
IC50 (Aurora B): 100 to 1000 nM

O=C1Nc2ncc(Br)cc2[C@]12C[C@H]2c1ccc2c(/C=C/c3cccnc3)n[nH]c2c1 (relative stereo) [Example A27, (1R*,2S*)-5′-bromo-2-(3-((E)-2-(pyridin-3-yl)vinyl-1H-indazol-6-yl)spiro[cyclopropane-1,3′-pyrrolo[2,3-b]pyridin]-2′(1′H)-one]
IC50 (human PLK4; read-out: PLK4 IC50 Ranges): < 100 nM | IC50 (Aurora B): < 100 nM

COc1ccc2c(c1)[C@]1(C[C@H]1c1ccc3c(-c4ccnc(N5CCN(C)CC5)c4)n[nH]c3c1)C(=O)N2 (relative stereo) [Example A37, (1R*,2S*)-5′-Methoxy-2-(3-(2-(4-methylpiperazin-1-yl)pyridin-4-yl)-1H-indazol-6-yl)spiro[cyclopropane-1,3′-indolin]-2′-one]
IC50 (human PLK4; read-out: PLK4 IC50 Ranges): < 100 nM | IC50 (Aurora B): < 100 nM

COc1ccc2c(c1)[C@]1(C[C@H]1c1ccc3c(-c4cccc(CO)c4)n[nH]c3c1)C(=O)N2 (relative stereo) [Example A43, (1R*,2S*)-2-(3-(3-(hydroxymethyl)phenyl)-1H-indazol-6-yl)-5′-methoxy spiro[cyclopropane-1,3′-indolin]-2′-one 2,2,2-trifluoroacetate]
IC50 (human PLK4; read-out: PLK4 IC50 Ranges): < 100 nM | IC50 (Aurora B): < 100 nM

COc1ccc2c(c1)[C@]1(C[C@H]1c1ccc3c(-c4cccc(CCO)c4)n[nH]c3c1)C(=O)N2 (relative stereo) [Example A46, (1R*,2S*)-2-(3-(3-(2-hydroxyethyl)phenyl)-1H-indazol-6-yl)-5′-methoxy spiro[cyclopropane-1,3′-indolin]-2′-one]
IC50 (human PLK4; read-out: PLK4 IC50 Ranges): < 100 nM

COc1ccc2c(c1)[C@]1(C[C@H]1c1ccc3c(-c4ccc(N5CCNCC5)cc4)n[nH]c3c1)C(=O)N2 (relative stereo) [Example A48, (1R*,2S*)-5′-methoxy-2-(3-(4-(piperazin-1-yl)phenyl)-1H-indazol-6-yl)spiro[cyclopropane-1,3′-indolin]-2′-one 2,2,2-trifluoroacetate]
IC50 (human PLK4): < 100 nM | IC50 (Aurora B): < 100 nM

COc1ccc2c(c1)[C@]1(C[C@H]1c1ccc3c(C#Cc4cccnc4)n[nH]c3c1)C(=O)N2 (relative stereo) [Example A52, (1R*,2S*)- and (1R*,2S*)-5′-methoxy-2-(3-(pyridin-3-ethynyl)-1H-indazol-6-yl)spiro[cyclopropane-1,3′-indolin]-2′-one]
IC50 (human PLK4; read-out: PLK4 IC50 Ranges): < 100 nM | IC50 (Aurora B): < 100 nM

O=C1Nc2ccccc2[C@]12C[C@H]2c1ccc2c(/C=C/c3ccccn3)n[nH]c2c1 (relative stereo) [Example A53, (1R*,2S*)-2-(3-((E)-2-(pyridin-2-yl)vinyl)-1H-indazol-6-yl)spiro[cyclopropane-1,3′-indolin]-2′-one]
IC50 (human PLK4; read-out: PLK4 IC50 Ranges): < 100 nM | IC50 (Aurora B): < 100 nM

N#Cc1ccc(/C=C/c2n[nH]c3cc([C@@H]4C[C@@]45C(=O)Nc4ccccc45)ccc23)cc1 (relative stereo) [Example A54, 4-((E)-2-(6-((1R*,2S*)-2′-oxospiro[cyclopropane-1,3′-indoline]-2-yl)-1H-indazol-3-yl)vinyl)benzonitrile]
IC50 (human PLK4; read-out: PLK4 IC50 Ranges): < 100 nM | IC50 (Aurora B): 100 to 1000 nM

CN1CCN(c2ccc(-c3n[nH]c4cc([C@@H]5C[C@@]56C(=O)Nc5ccc(N)cc56)ccc34)cc2)CC1 (relative stereo) [Example A86, (1R*,2S*)-5′-amino-2-(3-(4-(4-methylpiperazin-1-yl)phenyl)-1H-indazol-6-yl)spiro[cyclopropane-1,3′-indolin]-2′-one]
IC50 (human PLK4; read-out: PLK4 IC50 Ranges): < 100 nM | IC50 (Aurora B): 100 to 1000 nM

CN1C(=O)[C@@]2(C[C@H]2c2ccc3c(/C=C/c4ccc(CN5CCOCC5)cc4)n[nH]c3c2)c2ccccc21 (relative stereo) [Example A87, (1R*,2S*)-(E)-1′-methyl-2-(3-(4-(morpholinomethyl)styryl)-1H-indazol-6-yl)spiro[cyclopropane-1,3′-indolin]-2′-one 2,2,2-trifluoroacetate]
IC50 (human PLK4; read-out: PLK4 IC50 Ranges): < 100 nM | IC50 (Aurora B): < 100 nM

CN1C(=O)[C@@]2(C[C@H]2c2ccc3c(-c4ccc(N5CCNCC5)cc4)n[nH]c3c2)c2ccccc21 (relative stereo) [Example A88, (1R*,2S*)-1′-methyl-2-(3-(4-(piperazin-1-yl)phenyl)-1H-indazol-6-yl)spiro[cyclopropane-1,3′-indolin]-2′-one 2,2,2-trifluoroacetate]
IC50 (human PLK4; read-out: PLK4 IC50 Ranges): 100 to 1000 nM

CN1CCN(c2ccc(-c3n[nH]c4cc([C@@H]5C[C@@]56C(=O)N(C)c5ccccc56)ccc34)cn2)CC1 (relative stereo) [Example A93, (1R*,2S*)-1′-methyl-2-(3-(6-(4-methylpiperazin-1-yl)pyridin-3-yl)-1H-indazol-6-yl)spiro[cyclopropane-1,3′-indolin]-2′-one bis(2,2,2-trifluoroacetate)]
IC50 (human PLK4; read-out: PLK4 IC50 Ranges): < 100 nM | IC50 (Aurora B): < 100 nM

CN1C(=O)[C@@]2(C[C@H]2c2ccc3c(/C=C/c4ccc(CN5CCCCC5)cc4)n[nH]c3c2)c2ccccc21 (relative stereo) [Example A95, (1R*,2S*)-(E)-1′-methyl-2-(3-(4-(piperidin-1-ylmethyl)styryl)-1H-indazol-6-yl)spiro[cyclopropane-1,3′-indolin]-2′-one 2,2,2-trifluoroacetate]
IC50 (human PLK4; read-out: PLK4 IC50 Ranges): < 100 nM | IC50 (Aurora B): < 100 nM

CCN1CCN(c2ccc(-c3n[nH]c4cc([C@@H]5C[C@@]56C(=O)Nc5ccc(OC)cc56)ccc34)cc2)CC1 (relative stereo) [Example A98, (1R*,2S*)-2-(3-(4-(4-ethylpiperazin-1-yl)phenyl)-1H-indazol-6-yl)-5′-methoxyspiro[cyclopropane-1,3′-indolin]-2′-one 2,2,2-trifluoroacetate]
IC50 (human PLK4; read-out: PLK4 IC50 Ranges): < 100 nM | IC50 (Aurora B): < 100 nM

COc1cc2c(cc1OC)[C@]1(C[C@H]1c1ccc3c(-c4cccc(CN5CCOCC5)c4)n[nH]c3c1)C(=O)N2 (relative stereo) [Example A143, (1R*,2S*)-5′,6′-dimethoxy-2-(3-(3-(morpholinomethyl)phenyl)-1H-indazol-6-yl)spiro[cyclopropane-1,3′-indolin]-2′-one 2,2,2-trifluoroacetate]
IC50 (human PLK4; read-out: PLK4 IC50 Ranges): > 1000 nM

COc1cc2c(cc1OC)[C@]1(C[C@H]1c1ccc3c(-c4ccc(N5CCN(C)CC5)cc4)n[nH]c3c1)C(=O)N2 (relative stereo) [Example A144, (1R*,2S*)-5′,6′-dimethoxy-2-(3-(4-(4-methylpiperazin-1-yl)phenyl)-1H-indazol-6-yl)spiro[cyclopropane-1,3′-indolin]-2′-one 2,2,2-trifluoroacetate]
IC50 (human PLK4; read-out: PLK4 IC50 Ranges): 100 to 1000 nM

COc1ccc2c(c1)[C@@]1(C[C@@H]1c1ccc3c(I)n[nH]c3c1)C(=O)N2 [Example A8, (1S,2R)-2-(3-iodo-1H-indazol-6-yl)-5′-methoxyspiro[cyclopropane-1,3′-indolin]-2′-one]
IC50 (human PLK4; read-out: PLK4 IC50 Ranges): > 1000 nM

O=C1Nc2ccccc2[C@]12C[C@H]2c1ccc2c(I)n[nH]c2c1 [Example A10, (1R,2S)-2-(3-iodo-1H-indazol-6-yl)spiro[cyclopropane-1,3′-indolin]-2′-one]
IC50 (Aurora B): 100 to 1000 nM

O=C1Nc2ccccc2[C@]12C[C@H]2c1ccc2c(/C=C/c3csc(CN4CCOCC4)n3)n[nH]c2c1 [Example A77, (1R,2S)-2-(3-((E)-2-(2-(morpholinomethyl)thiazol-4-yl)vinyl)-1H-indazol-6-yl)spiro[cyclopropane-1,3′-indolin]-2′-one 2,2,2-trifluoroacetate salt]
IC50 (human PLK4; read-out: PLK4 IC50 Ranges): < 100 nM

COc1ccc2c(c1)[C@]1(C[C@H]1c1ccc3c(/C=C/c4ccc(CN5CCOCC5)cc4)n[nH]c3c1)C(=O)N2C [Example A102, (1R,2S)-(E)-5′-methoxy-1′-methyl-2-(3-(4-(morpholinomethyl)styryl)-1H-indazol-6-yl)spiro[cyclopropane-1,3′-indolin]-2′-one hydrochloride]
IC50 (Aurora B): < 100 nM

O=C1Nc2ccccc2[C@]12C[C@H]2c1ccc2c(/C=C/c3ccc4c(c3)CNCCO4)n[nH]c2c1 [Example A113, (1R,2S)-2-(3-((E)-2-(2,3,4,5-tetrahydrobenzo[f][1,4]oxazepin-7-yl)vinyl)-1H-indazol-6-yl)spiro[cyclopropane-1,3′-indolin]-2′-one 2,2,2-trifluoroacetate]
IC50 (human PLK4; read-out: PLK4 IC50 Ranges): < 100 nM

C/C(=C\c1ccc(CN2CCOCC2)cc1)c1n[nH]c2cc([C@@H]3C[C@@]34C(=O)Nc3ccccc34)ccc12 [Example A114, (1R,2S)-2-(3-((E)-1-(4-(morpholinomethyl)phenyl)prop-1-en-2-yl)-1H-indazol-6-yl)spiro[cyclopropane-1,3′-indolin]-2′-one 2,2,2-trifluoroacetate]
IC50 (human PLK4; read-out: PLK4 IC50 Ranges): < 100 nM

CN1C(=O)[C@@]2(C[C@H]2c2ccc3c(/C=C/c4ccc(CN5CCCC5)cc4)n[nH]c3c2)c2ccccc21 [Example A115, (1R,2S)-(E)-1′-methyl-2-(3-(4-(pyrrolidin-1-ylmethyl)styryl)-1H-indazol-6-yl)spiro[cyclopropane-1,3′-indolin]-2′-one 2,2,2-trifluoroacetate]
IC50 (human PLK4; read-out: PLK4 IC50 Ranges): < 100 nM

COc1ccc2c(c1)[C@]1(C[C@H]1c1ccc3c(-c4ccc(C5(F)CCN(C)CC5)cc4)n[nH]c3c1)C(=O)N2 [Example A124, (1R,2S)-2-(3-(4-(4-fluoro-1-methylpiperidin-4-yl)phenyl)-1H-indazol-6-yl)-5′-methoxyspiro[cyclopropane-1,3′-indolin]-2′-one 2,2,2-trifluoroacetate]
IC50 (human PLK4; read-out: PLK4 IC50 Ranges): < 100 nM

COc1ccc2c(c1)[C@]1(C[C@H]1c1ccc3c(-c4csc(CN5CCOCC5)c4)n[nH]c3c1)C(=O)N2 [Example A125, (1R,2S)-5′-methoxy-2-(3-(5-(morpholinomethyl)thiophen-3-yl)-1H-indazol-6-yl)spiro[cyclopropane-1,3′-indolin]-2′-one 2,2,2-trifluoroacetate]
IC50 (human PLK4; read-out: PLK4 IC50 Ranges): < 100 nM

COc1ccc2c(c1)[C@]1(C[C@H]1c1ccc3c(/C=C/c4ccc(CCN5CCOCC5)cc4)n[nH]c3c1)C(=O)N2 [Example A177, (1R,2S)-(E)-5′-methoxy-2-(3-(4-(2-morpholinoethyl)styryl)-1H-indazol-6-yl)spiro[cyclopropane-1,3′-indolin]-2′-one 2,2,2-trifluoroacetate]
IC50 (Aurora B): < 100 nM
